Reference: patent US20090176714A1, “METHOD OF REDUCING THE EFFECTS OF ABeta AND COMPOSITIONS THEREFORE” (priority 2004, published 2009)
No end group written: not given here.

Tests used:
[1] = test system: hippocampal slice cultures; assay: Aβ-induced cell death (EthD-1/calcein AM, % Death) in organotypic hippocampal slice cultures; format: cell-based, mouse
Description: Pups from C57B6/SJL mice were anaesthetized and decapitated at postnatal day 15. The brain was removed and placed in ice-cold dissecting medium (50% Minimum Essential Medium (Invitrogen, Carlsbad, Calif.), 50% Hank's Balanced Salt Solution (Invitrogen), 25 mM HEPES, and 36 mM glucose). Both hippocampi were dissected under a dissecting microscope and cut at 400 μm on a McIlwain tissue chopper. Slices were separated and placed on filter inserts with a 30 mm diameter and a 0.4 μm filter pore size (Millipore, Billerica, Mass.) held in 6-well culture plates. For the first 3 days, slices were kept in Neurobasal media with B-27 supplement, 1 mM glutamine, and 1% penicillin/streptomycin (Invitrogen). Subsequently, the media was changed every 3 days using media without antibiotics. Organotypic cultures were maintained in a humidified incubator at 37° C. in 5% O2 and 5% CO2 for 14 to 21 days.
(§1) Cell death and viability was determined on live slices using the fluorescent probes from Molecular Probes' Live/Dead Kit. After a 40 minute incubation in calcein AM (1:400) and ethidium homodimer (1:1000) in phosphate buffered saline, slices were visualized at 200× magnification with an inverted Nikon Diaphot 200 microscope using the Bio-Rad MRC-1024 Laser Scanning Confocal system (Hercules, Calif.). Random images of the neuronal fields were captured at the emission spectrum of each probe, and Scion Image software (Frederick, Md.) was used to quantify the number of live and dead cells. At least three areas including a neuronal field were imaged and used to determine the percent death for each slice. The percent death was calculated as the number of EthD-1 positive cells divided by the total number of EthD-1 and calcein AM positive cells.
β-amyloid1-42 and reverse Aβ (Aβ42-1) were obtained from BACHEM (Torrance, Calif.). These polypeptides were dissolved in 0.1% NH3OH at 222 μM. For treatments, Aβ was aggregated at 50 μM in Neurobasal media with B-27 supplement and 1 mM glutamine at 37° C. for 24 hours. Then, the slice culture media was removed, and the slices were treated with 1 mL of 25 μM or 50 μM Aβ, reverse Aβ, or vehicle for 24 hours. Human TTR (Calbiochem) or IGF-2 (Peprotech, Rocky Hill, N.J.) was added to slices together with the Aβ treatment at final concentrations of 3 μM (TTR) or 500 nM (IGF-2). sAPPα was prepared as described previously (Mattson et al., Neuron, 10:243-254 (1993)).
Unless otherwise stated, all sAPPα treatments were performed at 1 nM 48 hours prior to the addition of Aβ. Antibodies against TTR (C-20) or IGF-2 (F-20; 4 μg/mL; Santa Cruz) or sAPPα (6E10; 10 μg/mL; Chemicon) were added to slices together with the sAPPα treatment. Goat IgG (4 μg/mL; Santa Cruz) or mouse IgG1 (10 μg/mL; Chemicon) was added as a control. The 10 amino acid fragment of the carboxyl-terminal region of sAPPα (592-601 of APP695; SEVKMDAEFR; SEQ ID NO:1; Sigma) was added according to the same protocol for sAPPα.
SiRNA's were created based on the mouse mRNA sequences using the Ambion Silencer siRNA Construction Kit (Austin, Tex.). Several siRNA's were created by in vitro transcription for each silenced gene. Transfection was performed for 4 hours at 37° C. prior to vehicle or sAPPα treatment using 25 nM siRNA combined with the polyamines in the Ambion siPORT Amine Transfection Agent. Transfections were performed in Neurobasal media with 1 mM glutamine (Invitrogen). The successful mRNA target sequences are as follows, TTR: 5′-[…]-3′ (SEQ ID NO:16) and 5′-[…]-3′ (SEQ ID NO:17); IGF-2: 5′-AA-GGGGATAGAGATGTGAGAG-3′ (SEQ ID NO:18) and 5′-AAATTATGTGGT-AATTCTGCA-3′ (SEQ ID NO:19); IGF-1R: 5′-[…]-3′ (SEQ ID NO:20) and 5′-[…]-3′ (SEQ ID NO:21).
β-amyloid1-42 and reverse Aβ (Aβ42-1) were obtained from BACHEM (Torrance, Calif.). These peptides were dissolved in 0.1% NH3OH at 222 μM. For treatments, Aβ was aggregated at 50 μM in Neurobasal media with B-27 supplement and 1 mM glutamine at 37° C. for 24 hours. […]

[2] = test system: human cortical slices; assay: Aβ-induced cell death (EthD-1/calcein AM) in human organotypic cortical cultures; format: cell-based; details: for Protection against the Aβ-induced EthD-1 staining: FIG. 6C
Description: Four patients with intractable epilepsy who had elected to undergo a temporal lobe resection were recruited for this study. […] However, the overlying temporal cortex is normal. The age of the subjects ranged from 20 to 49. Brain tissue was obtained with informed consent from all patients.
Brain tissue was removed in large, intact pieces by electrocautery. Tissue obtained from the temporal cortex was approximately 3 cm×2 cm×1.5-2 cm. Immediately following removal, the tissue was placed in ice-cold Neuregen-I media (Brainbits, Springfield, Ill.), a CO2 independent transport and holding medium, and transported to a tissue culture laboratory. Meninges were removed before cutting the tissue with a scalpel to produce blocks about 0.5-1 cm^3 such that each gyrus was kept as intact as possible and the cortical layers were preserved. As described previously, incisions were made perpendicular to the longitudinal axis of the gyrus and along the white matter (Verwer et al., Exp. Gerontol., 38:167-172 (2003)). A vibratome was used to cut 400 μm thick slices at a plane perpendicular to the longitudinal axis of the gyrus. Thus, all cortical layers and a small amount of white matter were included in a slice. Alternately, small tissue pieces, which were usually obtained from the hippocampus, were cut at 400 μm using a McIlwain tissue chopper. No more than 2 slices were placed on a filter insert with a 30 mm diameter and a 0.4 μm filter pore size (Millipore, Billerica, Mass.) held in 6-well culture plates. For the first 12 hours, slices were kept in 1-1.2 mL Neurobasal media with B-27 supplement, 0.5 mM glutamine, and 1% penicillin/streptomycin (Invitrogen). Subsequently, the media was changed every 2 days using 1 mL of media without antibiotics. Organotypic cultures were maintained in a humidified incubator at 37° C. in 5% O2, 5% CO2, and 90% N for 4 to 28 days.
as §1, with “images” for “images of the neuronal fields”, “areas” for “areas including a neuronal field”
β-amyloid1-42 and reverse Aβ (Aβ42-1) were obtained from BACHEM (Torrance, Calif.). These peptides were dissolved in 0.1% NH3OH at 222 μM. For treatments, Aβ or reverse Aβ was aggregated at 50 μM in Neurobasal media with B-27 supplement and 0.5 mM glutamine at 37° C. for 24 hours. Then, the slice culture media was removed, and the slices were treated with 1 mL of 25 μM or 50 μM Aβ, reverse Aβ, or vehicle for 24 hour. Human TTR (Calbiochem) was added to slices together with the Aβ treatment at final concentrations of 0.03, 0.3, and 3 μM TTR. sAPPα was obtained from Sigma (St. Louis, Mo.). Unless otherwise stated, all sAPPα treatments were performed at 1 nM 48 hours prior to the addition of Aβ. The 10 amino acid fragment of the carboxyl-terminal region of sAPPα (592-601 of APP695; SEVKMDAEFR was added according to the same protocol for sAPPα. Because a variable amount of tissue was obtained from each patient, not all treatments were performed on all patients.

[3] = 48 h prior to 25 μM Aβ (24 h), FIG. 12B, 1 nM, final concentration of 1 mM
[4] = 1 nM 48 hours prior to 25 μM Aβ (24 hours), FIG. 7
[5] = 1 nM 48 h prior to 25 μM Aβ (24 h), FIG. 12A

| Substance | Protection against Aβ-induced death (% Death) [1, 3] | Protection against Aβ-induced death (% Death) [1, 4] | further results |
| --- | --- | --- | --- |
| DAE(dF) | do not significantly protect | – | – |
| SEVKMDAEF [10 amino acid fragment with the carboxyl arginine eliminated] | – | protection was maintained | – |
| (dD)AEF | do not significantly protect | – | – |
| transthyretin [TTR] | – | – | Protection against Aβ-induced death (% Death) ([1]; 3 μM added together with Aβ, FIG. 4A): completely protected; Protection against the Aβ-induced EthD-1 staining ([2]; co-treatment with 0.03 μM): not; Protection against the Aβ-induced EthD-1 staining ([2]; co-treatment with 0.3 μM): protected; Protection against the Aβ-induced EthD-1 staining ([2]; co-treatment with 3 μM): protected; Concentrations that protect against Aβ toxicity ([2]; human cortical slices, co-treatment with Aβ): ≥ 0.3 µM |
| EADF-amide (EADF-NH2) [EADF (SEQ ID NO:5)-amide, aspartic acid and glutamic acid switched and an amide group attached to the COOH-terminus] | significantly protects | – | – |
| acetyl-DAEF (Ac-DAEF) [DAEF with the NH2-terminal end acetylated] | – | – | Protection against Aβ-induced death (% Death) [1, 5]: did not protect to the same degree as the unmodified tetrapeptide; Protection against Aβ-induced death (% Death) ([1]; 1 nM 48 h prior to 25 μM Aβ (24 h), FIG. 12A, listed as Acetylated DAEF): significant protection |
| insulin-like growth factor 2 [IGF-2] | – | – | Protection against Aβ-induced death (% Death) ([1]; 500 nM added together with Aβ, FIG. 4A): partially protected |
| SEVKMDAE [fragment with both arginine and phenylalanine eliminated] | – | reversed the protection | – |
| EVKMDAEFR [fragment with the serine eliminated] | – | significantly protected | – |
| acetyl-EADF (Ac-EADF) | does not | – | – |
| R(9)-DAEF (RRRRRRRRRDAEF) [9 arginines added to the NH2-terminal end of the tetrapeptide] | – | – | Protection against Aβ-induced death (% Death) [1, 5]: significantly protected |
| D(dA)EF | do not significantly protect | – | – |
| VKMDAEFR [fragment with the serine and glutamic acid eliminated] | – | significantly protected | – |
